Measurements: ChEMBL document CHEMBL3112543, “Discovery of MK-7655, a β-lactamase inhibitor for combination with Primaxin®” (Bioorg Med Chem Lett, 2014)

What was measured:
[1] = tested on: Pseudomonas aeruginosa; assay: Inhibition of beta-lactamase in Pseudomonas aeruginosa CL 5701 assessed as drug concentration required to reduce imipenem MIC to 4 ug/ml
[2] = Inhibition of beta-lactamase AmpC in Pseudomonas aeruginosa assessed as inhibition of hydrolysis of nitrocefin
[3] = tested on: Acinetobacter baumannii; assay: Inhibition of beta-lactamase in Acinetobacter baumannii CL 6188 assessed as drug concentration required to reduce imipenem MIC to 4 ug/ml
[4] = Inhibition of beta-lactamase AmpC in Acinetobacter baumannii assessed as inhibition of hydrolysis of nitrocefin
[5] = tested on: Klebsiella pneumoniae; assay: Inhibition of beta-lactamase in Klebsiella pneumoniae CL 6569 assessed as drug concentration required to reduce imipenem MIC to 4 ug/ml
[6] = Inhibition of beta-lactamase KPC-2 in Klebsiella pneumoniae assessed as inhibition of hydrolysis of nitrocefin
[7] = target: Beta-lactamase (Acinetobacter baumannii, UniProt Q8RLA6); assay: Inhibition of beta-lactamase Oxa40 in Acinetobacter baumannii assessed as inhibition of hydrolysis of nitrocefin
Chain of Beta-lactamase (Q8RLA6 whole entry): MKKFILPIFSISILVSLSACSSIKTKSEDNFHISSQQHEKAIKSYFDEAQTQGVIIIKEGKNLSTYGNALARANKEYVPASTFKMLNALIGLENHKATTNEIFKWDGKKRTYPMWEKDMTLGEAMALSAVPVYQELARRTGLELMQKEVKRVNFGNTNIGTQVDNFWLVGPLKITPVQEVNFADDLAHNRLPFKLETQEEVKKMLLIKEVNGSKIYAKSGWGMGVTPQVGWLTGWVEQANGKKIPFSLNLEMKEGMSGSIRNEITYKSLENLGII

Row | SMILES | INH [1] | IC50 [2] | INH [3] | IC50 [4] | INH [5] | IC50 [6] | IC50 [7]
1 | O=C(N[C@H]1CCNC1)[C@@H]1CC[C@@H]2CN1C(=O)N2OS(=O)(=O)O | 3.12 µM | 140 nM | > 100 µM | 5600 nM | 6.25 µM | 410 nM | > 50000 nM
2 | O=C(Nc1ccccn1)[C@@H]1CC[C@@H]2CN1C(=O)N2OS(=O)(=O)O | 12.5 µM | 1.2 nM | > 100 µM | 23 nM | 100 µM | 36 nM | 530 nM
3 | Nc1cccc(NC(=O)[C@@H]2CC[C@@H]3CN2C(=O)N3OS(=O)(=O)O)n1 | 50 µM | 8 nM | > 100 µM | 100 nM | 25 µM | 11 nM | 360 nM
4 | O=C(NC1CCNCC1)[C@@H]1CC[C@@H]2CN1C(=O)N2OS(=O)(=O)O [RELEBACTAM] | 4.7 µM | 465 nM | > 100 µM | 4100 nM | 12.5 µM |  | > 50000 nM
5 | C[n+]1ccc(NC(=O)[C@@H]2CC[C@@H]3CN2C(=O)N3OS(=O)(=O)[O-])cc1 | 25 µM | 210 nM | > 100 µM | 12000 nM | 25 µM | 260 nM | > 50000 nM
6 | CN(C(=O)[C@@H]1CC[C@@H]2CN1C(=O)N2OS(=O)(=O)O)C1CCNCC1 | 25 µM | 290 nM | > 100 µM | 2100 nM | 50 µM | 2500 nM | > 50000 nM
7 | CN1CCC(NC(=O)[C@@H]2CC[C@@H]3CN2C(=O)N3OS(=O)(=O)O)CC1 | 12.5 µM | 500 nM | > 100 µM | 2700 nM | 12.5 µM | 240 nM | > 50000 nM
8 | O=C(Nc1ccncc1)[C@@H]1CC[C@@H]2CN1C(=O)N2OS(=O)(=O)O | 25 µM | 6 nM | > 100 µM | 1050 nM | 50 µM |  | 20000 nM
9 | NCc1ccc(NC(=O)[C@@H]2CC[C@@H]3CN2C(=O)N3OS(=O)(=O)O)nc1 | 6.25 µM | 3 nM | > 100 µM | 26 nM | 12.5 µM | 42 nM | 4400 nM
10 | O=C(Nc1cccnc1)[C@@H]1CC[C@@H]2CN1C(=O)N2OS(=O)(=O)O | 100 µM | 37 nM | > 100 µM | 1200 nM | 50 µM | 42 nM | 20000 nM
11 | N[C@@H](Cc1ccc(NC(=O)[C@@H]2CC[C@@H]3CN2C(=O)N3OS(=O)(=O)O)cc1)C(=O)O | 25 µM | 11 nM | > 100 µM | 1100 nM | 50 µM | 3 nM | 28000 nM
12 | O=C(N[C@H]1CCCNCC1)[C@@H]1CC[C@@H]2CN1C(=O)N2OS(=O)(=O)O | 6.25 µM | 69 nM | > 100 µM | 1700 nM | 12.5 µM | 245 nM | > 50000 nM
13 | O=C(OC1CCNCC1)[C@@H]1CC[C@@H]2CN1C(=O)N2OS(=O)(=O)O | 6.25 µM | 170 nM | > 100 µM | 1100 nM | 6.25 µM | 9 nM | 13000 nM
14 | O=C(N[C@@H]1CCCNCC1)[C@@H]1CC[C@@H]2CN1C(=O)N2OS(=O)(=O)O | 6.25 µM | 520 nM | > 100 µM | 1200 nM | 12.5 µM | 225 nM | > 50000 nM
15 | O=C(NCC1CCNCC1)[C@@H]1CC[C@@H]2CN1C(=O)N2OS(=O)(=O)O | 6.25 µM | 30 nM | > 100 µM | 2200 nM | 6.25 µM | 77 nM | > 50000 nM
16 | O=C(NC1CCS(=O)(=O)CC1)[C@@H]1CC[C@@H]2CN1C(=O)N2OS(=O)(=O)O | 50 µM | 9.5 nM | > 100 µM | 470 nM | 50 µM | 150 nM | > 50000 nM
17 | O=C(O)c1ccc(NC(=O)[C@@H]2CC[C@@H]3CN2C(=O)N3OS(=O)(=O)O)cc1 | 50 µM | 11 nM | > 100 µM | 460 nM | > 100 µM | 10 nM | 4800 nM
18 | O=C(N[C@@H]1CCNC1)[C@@H]1CC[C@@H]2CN1C(=O)N2OS(=O)(=O)O | 6.25 µM | 1900 nM | > 100 µM | 27000 nM | 6.25 µM | 260 nM | > 50000 nM
